Test results taken from ChEMBL document CHEMBL1201862, “PubChem BioAssay data set” (2004).
Several values for one entry are separate records, joined by “and”; a condition that tells them apart may be missing. Equal entries are not always repeated. Activity calls are given as the source filed them.

Legend:
HEK293 [1] = experiment: cells; assay type: functional, cell-based; conditions: Homo sapiens
[2] = target: T1, Nucleotide-binding oligomerization domain-containing protein 1 (Homo sapiens, UniProt Q9Y239); experiment: blockers of NOD1 pathway activity – revised, SAR follow-up (AID 2333); assay type: functional
T1 sequence (Q9Y239 whole entry): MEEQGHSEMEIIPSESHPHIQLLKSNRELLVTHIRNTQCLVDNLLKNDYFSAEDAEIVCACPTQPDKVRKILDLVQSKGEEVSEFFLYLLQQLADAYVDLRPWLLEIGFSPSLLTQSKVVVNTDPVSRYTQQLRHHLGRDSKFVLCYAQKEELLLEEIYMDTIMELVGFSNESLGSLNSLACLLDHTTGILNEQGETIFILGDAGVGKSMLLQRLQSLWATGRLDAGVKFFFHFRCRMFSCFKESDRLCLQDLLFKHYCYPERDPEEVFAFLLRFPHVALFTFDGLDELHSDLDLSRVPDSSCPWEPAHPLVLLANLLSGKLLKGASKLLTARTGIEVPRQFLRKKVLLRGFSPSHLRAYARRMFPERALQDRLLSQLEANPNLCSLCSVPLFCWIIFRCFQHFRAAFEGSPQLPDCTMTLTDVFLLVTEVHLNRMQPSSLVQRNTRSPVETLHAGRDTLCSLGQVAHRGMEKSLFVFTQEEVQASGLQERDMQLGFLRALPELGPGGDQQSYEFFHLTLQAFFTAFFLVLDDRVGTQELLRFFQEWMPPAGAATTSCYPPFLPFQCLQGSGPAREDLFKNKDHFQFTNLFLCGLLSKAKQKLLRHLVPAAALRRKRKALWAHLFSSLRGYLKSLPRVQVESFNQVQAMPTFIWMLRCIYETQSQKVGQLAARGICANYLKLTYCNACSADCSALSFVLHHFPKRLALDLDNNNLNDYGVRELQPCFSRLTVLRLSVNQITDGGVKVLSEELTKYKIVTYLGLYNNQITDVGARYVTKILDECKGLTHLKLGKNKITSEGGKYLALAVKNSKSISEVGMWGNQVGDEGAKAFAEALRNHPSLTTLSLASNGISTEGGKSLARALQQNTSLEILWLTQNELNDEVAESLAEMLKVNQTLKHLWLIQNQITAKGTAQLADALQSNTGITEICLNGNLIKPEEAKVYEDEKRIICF

HEK293 [3] = experiment: inhibition of NOD1-driven NF-kB reporter – cell-based, luminescence, uHTS, primary screen (AID 1578); assay type: functional; conditions: Homo sapiens
HEK293 [4] = experiment: cells; conditions: Homo sapiens
Tumor necrosis factor = Tumor necrosis factor (Homo sapiens, UniProt P01375); experiment: analog potency on TNFa NF-kB signaling – cell-based, revised, SAR follow-up (AID 2337); assay type: functional
Sequence of Tumor necrosis factor (P01375 whole entry): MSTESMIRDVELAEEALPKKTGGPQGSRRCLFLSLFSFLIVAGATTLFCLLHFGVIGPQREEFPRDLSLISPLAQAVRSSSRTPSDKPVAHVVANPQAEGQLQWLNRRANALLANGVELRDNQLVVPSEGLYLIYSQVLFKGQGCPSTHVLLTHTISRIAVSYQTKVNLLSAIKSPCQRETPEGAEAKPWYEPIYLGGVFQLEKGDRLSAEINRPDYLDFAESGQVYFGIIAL

HEK293 [5] = experiment: cells; assay type: functional, cell-based; conditions: Homo sapiens; remark: listed apart in the source
HEK293 [6] = experiment: NOD2 signaling inhibitors in MDP-stimulated cells, cell-based, uHTS, luminescence (AID 2001); assay type: functional; conditions: Homo sapiens
[7] = target: T2, Endoribonuclease toxin MazF (Escherichia coli K-12, UniProt P0AE70); experiment: activation of MazEF endoribonuclease cleavage – biochemical, fluorescence, single-stranded RNA substrate, uHTS hits, dose response (AID 588481); assay type: functional
T2 sequence (P0AE70 whole entry): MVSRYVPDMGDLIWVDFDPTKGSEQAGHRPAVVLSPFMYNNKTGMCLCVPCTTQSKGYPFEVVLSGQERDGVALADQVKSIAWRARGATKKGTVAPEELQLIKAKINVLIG

[8] = target: T2, Endoribonuclease toxin MazF; experiment: substrate-only fluorescence increase artefacts – biochemical, single-stranded RNase substrate, counter-screen for MazEF activator project, dose response (AID 588502); assay type: functional
INS1 = experiment: INS-1E survival protection against cytokine death – cell-based, luminescence, retest, dose response (AID 449756); assay type: functional; conditions: Rattus norvegicus;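 further: cell death triggered by IL-1 beta plus TNF-alpha plus IFN-gamma mixture; protective hits raise ATP signal compared with cytokine alone wells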
[9] = NIH-3T3 fibroblast cytotoxicity, dose response, cytotoxicity control, cell-based, fluorescence, Alamar Blue, secondary assay (AID 2327); assay type: functional;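 further: NIH-3T3 mouse fibroblasts cultured with fluconazole at 8 µg/mL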
[10] = target: Serine/threonine-protein phosphatase (Candida dubliniensis (strain CD36 / CBS 7987 / NCPF 3949 / NRRLY-17841) (Yeast), UniProt B9W6M3); experiment: blockers of CaCl2-induced CDRE-lacZ signaling – S. cerevisiae, luminescence, secondary, dose response (AID 2388); assay type: functional, cell-based;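 further: yeast reporter cells carrying a calcineurin-responsive lacZ construct stimulated with calcium chloride; luminescent beta-galactosidase reporter signal in whole cells rather than isolated phosphatase activity; potency for inhibition where a drop in reporter signal means calcineurin blockade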
Sequence of Serine/threonine-protein phosphatase (B9W6M3 whole entry): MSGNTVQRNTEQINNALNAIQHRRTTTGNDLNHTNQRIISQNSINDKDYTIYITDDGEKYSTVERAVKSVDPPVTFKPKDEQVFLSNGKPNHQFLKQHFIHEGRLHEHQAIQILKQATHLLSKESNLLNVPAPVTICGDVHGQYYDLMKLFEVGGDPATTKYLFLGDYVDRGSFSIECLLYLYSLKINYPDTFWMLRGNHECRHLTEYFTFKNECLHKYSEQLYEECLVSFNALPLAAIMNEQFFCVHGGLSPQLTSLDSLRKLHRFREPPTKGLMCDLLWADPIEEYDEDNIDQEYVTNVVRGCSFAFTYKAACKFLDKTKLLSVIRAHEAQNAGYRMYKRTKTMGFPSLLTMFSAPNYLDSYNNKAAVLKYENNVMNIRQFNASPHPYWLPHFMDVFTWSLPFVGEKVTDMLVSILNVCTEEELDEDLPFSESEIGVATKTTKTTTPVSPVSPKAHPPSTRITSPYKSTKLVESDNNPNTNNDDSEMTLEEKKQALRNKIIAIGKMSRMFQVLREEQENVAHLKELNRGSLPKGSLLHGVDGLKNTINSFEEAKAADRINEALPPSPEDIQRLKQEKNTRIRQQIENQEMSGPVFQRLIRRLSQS

[11] = fluconazole-exposed Candida albicans growth modulators – fluorescence, retest, confirmation (AID 2467); assay type: functional, cell-based
[12] = target: ATP-dependent molecular chaperone HSP82 (Candida albicans (strain WO-1) (Yeast), UniProt C4YTQ8); experiment: steroid-induced GRE reporter decrease in yeast – S. cerevisiae, luminescence, Hsp90 inhibitor project, dose response (AID 2400); assay type: functional, cell-based;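 further: beta-galactosidase luminescence from glucocorticoid response element reporter as proxy for Hsp90 function; inhibitor potency where signal loss means Hsp90 inhibition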
Sequence of ATP-dependent molecular chaperone HSP82 (C4YTQ8 whole entry): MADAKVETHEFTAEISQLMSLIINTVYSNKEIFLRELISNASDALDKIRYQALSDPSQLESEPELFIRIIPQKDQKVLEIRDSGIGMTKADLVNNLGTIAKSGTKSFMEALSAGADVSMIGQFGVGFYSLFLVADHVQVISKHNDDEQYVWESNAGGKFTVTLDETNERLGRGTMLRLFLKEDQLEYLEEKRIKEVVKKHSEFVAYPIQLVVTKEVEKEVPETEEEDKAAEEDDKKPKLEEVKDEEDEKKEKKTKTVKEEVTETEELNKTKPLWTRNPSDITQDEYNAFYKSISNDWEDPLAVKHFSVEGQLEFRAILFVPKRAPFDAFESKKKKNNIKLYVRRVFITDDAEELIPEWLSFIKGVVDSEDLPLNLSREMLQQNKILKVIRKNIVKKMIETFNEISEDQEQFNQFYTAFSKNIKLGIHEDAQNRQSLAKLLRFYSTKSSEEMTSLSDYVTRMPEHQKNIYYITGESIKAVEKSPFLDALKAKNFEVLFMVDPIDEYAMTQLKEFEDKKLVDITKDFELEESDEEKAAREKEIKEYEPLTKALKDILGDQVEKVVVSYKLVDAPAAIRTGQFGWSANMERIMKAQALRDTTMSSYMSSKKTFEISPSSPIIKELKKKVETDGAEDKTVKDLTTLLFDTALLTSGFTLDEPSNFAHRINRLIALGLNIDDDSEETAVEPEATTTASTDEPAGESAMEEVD

[13] = target: T3, Nuclear receptor subfamily 0 group B member 1 (Homo sapiens, UniProt P51843); experiment: Luminescence-based cell-based high throughput dose response assay for inhibitors of the orphan nuclear receptor subfamily 0, group B, member 1 (DAX1; NR0B1). [Related pubchem assays (depositor defined):AID504766, AID504790]; assay type: functional
T3 sequence (P51843 whole entry): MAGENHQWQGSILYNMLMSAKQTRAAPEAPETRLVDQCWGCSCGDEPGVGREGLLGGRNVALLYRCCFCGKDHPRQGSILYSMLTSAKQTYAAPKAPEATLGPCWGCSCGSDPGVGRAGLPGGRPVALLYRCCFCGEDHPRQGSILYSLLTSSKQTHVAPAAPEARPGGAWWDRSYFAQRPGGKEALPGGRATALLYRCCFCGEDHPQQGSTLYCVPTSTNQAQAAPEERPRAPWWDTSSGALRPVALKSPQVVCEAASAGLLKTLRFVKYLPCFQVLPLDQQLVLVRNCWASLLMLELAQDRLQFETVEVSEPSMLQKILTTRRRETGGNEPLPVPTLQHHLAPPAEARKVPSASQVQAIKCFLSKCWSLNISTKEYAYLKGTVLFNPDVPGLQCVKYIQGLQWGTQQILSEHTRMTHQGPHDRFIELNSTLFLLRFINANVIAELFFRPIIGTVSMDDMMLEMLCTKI

HEK293 [14] = experiment: cells; assay type: functional, cell-based; conditions: Homo sapiens; remark: listed apart in the source
[15] = target: T4, Dual specificity protein phosphatase 3 (Homo sapiens, UniProt P51452); experiment: SAR VHR1 absorbance Assay for In Vitro dose response studies. [Related pubchem assays (depositor defined):AID1654, AID1661, AID1878, AID1992, AID2004]
T4 sequence (P51452 whole entry): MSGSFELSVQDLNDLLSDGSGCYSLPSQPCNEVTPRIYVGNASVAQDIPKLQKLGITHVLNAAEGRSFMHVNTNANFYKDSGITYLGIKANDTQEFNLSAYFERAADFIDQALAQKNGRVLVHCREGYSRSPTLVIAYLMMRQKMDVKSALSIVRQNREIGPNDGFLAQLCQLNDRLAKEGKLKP

[16] = target: DNA dC->dU-editing enzyme APOBEC-3G (Homo sapiens, UniProt Q9HC16); experiment: Dose Response confirmation of small molecule APOBEC3G DNA Deaminase Inhibitors via a fluorescence-based single-stranded DNA deaminase assay. [Related pubchem assays (depositor defined):AID493012, AID493028]; assay type: functional
Sequence of DNA dC->dU-editing enzyme APOBEC-3G (Q9HC16 whole entry): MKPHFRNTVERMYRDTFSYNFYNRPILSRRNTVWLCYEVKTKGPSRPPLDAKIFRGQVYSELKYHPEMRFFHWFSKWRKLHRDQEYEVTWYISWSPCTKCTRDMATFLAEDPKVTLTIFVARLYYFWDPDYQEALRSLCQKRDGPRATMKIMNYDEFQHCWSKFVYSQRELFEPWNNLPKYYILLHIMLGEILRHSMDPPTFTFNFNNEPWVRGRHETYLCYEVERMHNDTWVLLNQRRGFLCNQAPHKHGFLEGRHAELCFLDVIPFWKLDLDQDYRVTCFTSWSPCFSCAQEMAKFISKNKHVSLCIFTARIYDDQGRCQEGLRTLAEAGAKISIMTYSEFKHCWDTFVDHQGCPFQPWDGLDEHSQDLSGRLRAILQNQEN

[17] = target: DNA dC->dU-editing enzyme APOBEC-3A (Homo sapiens, UniProt P31941); experiment: A3A deaminase inhibition for selectivity – biochemical, dose response (AID 504722); assay type: functional
Sequence of DNA dC->dU-editing enzyme APOBEC-3A (P31941 whole entry): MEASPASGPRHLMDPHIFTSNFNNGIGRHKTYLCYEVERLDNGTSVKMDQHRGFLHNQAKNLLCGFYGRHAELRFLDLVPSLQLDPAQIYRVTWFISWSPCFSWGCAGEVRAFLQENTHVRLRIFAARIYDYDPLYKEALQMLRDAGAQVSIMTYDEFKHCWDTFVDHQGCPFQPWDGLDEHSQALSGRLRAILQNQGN

[18] = target: T4, Dual specificity protein phosphatase 3; experiment: SAR VHR1 Fluorescent Assay for In Vitro dose response studies. [Related pubchem assays (depositor defined):AID1654, AID1661, AID1878, AID1992, AID2004, AID2070, AID2085]; assay type: functional
[19] = target: T5, Tyrosine-protein phosphatase non-receptor type 7 (Homo sapiens, UniProt P35236); experiment: inhibition of hematopoietic tyrosine phosphatase HePTP – biochemical, set 2, SAR follow-up (AID 449736); assay type: functional
T5 sequence (P35236 whole entry): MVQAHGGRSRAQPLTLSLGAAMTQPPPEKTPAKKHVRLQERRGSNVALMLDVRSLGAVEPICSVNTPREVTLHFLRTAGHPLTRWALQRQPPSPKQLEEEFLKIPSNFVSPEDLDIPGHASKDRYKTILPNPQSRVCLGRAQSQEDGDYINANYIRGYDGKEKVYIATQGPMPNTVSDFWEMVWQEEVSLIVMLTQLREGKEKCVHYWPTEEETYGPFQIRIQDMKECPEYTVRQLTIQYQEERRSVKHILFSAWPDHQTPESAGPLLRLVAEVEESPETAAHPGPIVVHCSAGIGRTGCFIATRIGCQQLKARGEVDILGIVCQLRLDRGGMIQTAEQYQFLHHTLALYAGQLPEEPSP

[20] = target: T6, Dual specificity protein phosphatase 6 (Rattus norvegicus, UniProt Q64346); assay type: functional
T6 sequence (Q64346 whole entry): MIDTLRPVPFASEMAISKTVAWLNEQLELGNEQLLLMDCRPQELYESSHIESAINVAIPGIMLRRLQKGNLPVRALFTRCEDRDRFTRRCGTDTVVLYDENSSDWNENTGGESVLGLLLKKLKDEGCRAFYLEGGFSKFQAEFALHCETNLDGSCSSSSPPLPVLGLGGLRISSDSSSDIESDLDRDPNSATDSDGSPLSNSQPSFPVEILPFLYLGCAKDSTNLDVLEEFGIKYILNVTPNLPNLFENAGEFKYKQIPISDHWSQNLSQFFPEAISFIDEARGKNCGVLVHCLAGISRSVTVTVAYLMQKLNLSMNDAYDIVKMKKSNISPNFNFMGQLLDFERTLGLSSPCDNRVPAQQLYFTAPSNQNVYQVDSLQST

[21] = target: T5, Tyrosine-protein phosphatase non-receptor type 7; experiment: SAR analysis of chemical inhibitors of HePTP using a Fluorescent assay - Set 2. [Related pubchem assays (depositor defined):AID1059, AID1077, AID1661, AID2085, AID521]; assay type: functional
[22] = target: T5, Tyrosine-protein phosphatase non-receptor type 7; experiment: redox-active compounds inhibiting HePTP phosphatase – biochemical, fluorescence, mechanism study (AID 2068); assay type: functional
[23] = target: T4, Dual specificity protein phosphatase 3; experiment: SAR VHR1 Fluorescent Assay for In Vitro dose response studies Set 2. [Related pubchem assays (depositor defined):AID1654, AID1661, AID1878]; assay type: functional
[24] = target: T6, Dual specificity protein phosphatase 6; experiment: SAR analysis of inhibitors of MKP-3 - Set 2. [Related pubchem assays (depositor defined):AID1055, AID1661, AID425, AID553, AID566]; assay type: functional
[25] = viability loss in CEM21 cells – cell-based, CellTiter-Glo luminescence, cherry-picked, cytotoxicity control for viral fusion inhibitor project, dose response (AID 652042); assay type: functional;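 further: potency for signal decrease meaning cytotoxicity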
[26] = HIV-1 AD8 envelope cell-cell fusion blockers – cherry-pick, dose response (AID 652062); assay type: functional, cell-based;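 further: luciferase signal from cell-cell fusion driven by HIV-1 clade B AD8 Env; potency is for inhibitors of fusion seen as a drop in luminescence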
[27] = off-target signal loss in HeLa-CEM21 co-culture – HeLa F-luc CTL cells, cherry-picked, counter-screen for HIV-1 Env fusion inhibitor project, dose response (AID 652040); assay type: functional, cell-based;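 further: potency for signal decrease marking cytotoxic or nonspecific inhibition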
[28] = blockers of HIV-1 ZM109 envelope-driven cell-cell fusion – HeLa effector, CEM target cells, luciferase, cherry-pick, dose response (AID 652058); assay type: functional, cell-based;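 further: luciferase signal from HIV-1 Env mediated cell-cell fusion of effector and target cells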
[29] = blockers of HIV-1 envelope-mediated cell-cell fusion – cherry-pick, dose response (AID 652057); assay type: functional, cell-based
[30] = target: T7, Polyadenylate-binding protein 1 (Homo sapiens, UniProt P11940); experiment: MLLE binding blockers, Cy5 peptide tracer – biochemical, fluorescence polarization, Cy5-PAM2 peptide, secondary, miRNA deadenylation inhibitor project, dose response (AID 602260); assay type: functional; conditions: read-out: IC50_Mean
T7 sequence (P11940 whole entry, the tested form may be a part): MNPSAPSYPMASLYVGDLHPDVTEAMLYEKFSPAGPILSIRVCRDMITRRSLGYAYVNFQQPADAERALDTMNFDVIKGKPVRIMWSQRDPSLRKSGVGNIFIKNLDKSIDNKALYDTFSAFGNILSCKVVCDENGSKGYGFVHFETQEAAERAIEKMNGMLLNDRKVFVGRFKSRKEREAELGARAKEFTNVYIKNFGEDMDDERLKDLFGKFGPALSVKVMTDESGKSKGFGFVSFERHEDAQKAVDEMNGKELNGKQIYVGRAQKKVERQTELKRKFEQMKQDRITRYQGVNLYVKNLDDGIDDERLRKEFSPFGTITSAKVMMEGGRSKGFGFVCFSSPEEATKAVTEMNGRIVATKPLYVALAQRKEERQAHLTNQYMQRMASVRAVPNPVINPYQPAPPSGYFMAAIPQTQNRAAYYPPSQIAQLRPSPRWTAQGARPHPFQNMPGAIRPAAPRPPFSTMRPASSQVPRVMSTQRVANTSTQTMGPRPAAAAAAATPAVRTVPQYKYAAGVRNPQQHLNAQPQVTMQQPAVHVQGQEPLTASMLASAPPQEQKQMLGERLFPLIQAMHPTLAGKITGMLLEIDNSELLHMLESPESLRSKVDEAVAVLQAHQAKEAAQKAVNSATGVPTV

[31] = target: T7, Polyadenylate-binding protein 1; experiment: MLLE domain peptide-binding blockers, IC50 – biochemical, fluorescence polarization, FITC-PAM2 peptide, dose response (AID 602259); assay type: functional; conditions: read-out: IC50_Mean

c1ccc(-c2csc3ncnc(NCc4ccccn4)c23)cc1
IC50 (HEK293 [1]): 16.3 µM (active)
IC50 [2]: 3.2 µM (active)
EC50 (HEK293 [3]): 3.17 µM (active)
IC50 (HEK293 [4]): 11.5 µM (active)
IC50 (Tumor necrosis factor): 4.23 µM (active)
IC50 (HEK293 [5]): 6.34 µM (active)
IC50 (HEK293 [6]): 7.16 µM (active)

Cc1cc(NC(=O)CSc2nc(-c3ccccc3Cl)nc3c2c(=O)n(C)c(=O)n3C)no1
EC50 [7]: > 99 µM (inactive)
EC50 [8]: > 99 µM (inactive)

COC(=O)CSc1nc2ccc(C)cc2cc1C#N
EC50 [7]: > 99 µM (inactive)
EC50 [8]: > 99 µM (inactive)

Cc1ccc(NC(=O)c2ccccc2NS(=O)(=O)c2ccc(Cl)s2)cc1
AC50 (INS1): 4.46 µM (active)
EC50 [9]: 20.5 µM (active)
EC50 [10]: > 180 µM (inactive)
EC50 [11]: 0.215 µM (active)
EC50 [12]: 7.91 µM (active)

CCSc1nnc(NC(=O)C2CCCN(S(=O)(=O)c3c[nH]cn3)C2)s1 (stereo unspecified)
IC50 [13]: > 67.5 µM (inactive)
IC50 (HEK293 [14]): > 67.5 µM (inactive)

Cc1cccc(-n2c(N)c(C(=O)N3CCN(C)CC3)sc2=S)c1
IC50 [15]: 3.32 µM (active)
IC50 [16]: 12.2 µM (active)
IC50 [17]: > 100 µM (inactive)
IC50 [18]: > 99 µM (inactive)
IC50 [19]: 3.6 µM (active) and 8.47 µM (active) and > 100 µM (inactive)
IC50 [20]: > 99 µM (inactive)
IC50 [21]: 4.7 µM (active)
IC50 [22]: 0.108 µM (active)
IC50 [23]: 0.96 µM (active)
IC50 [24]: > 100 µM (inactive)

C(=C\c1ccccc1)/CN1CCN(c2ncnc3c2oc2ccccc23)CC1
AC50 [25]: 65.4 µM (active)
AC50 [26]: 9.31 µM (active)
EC50 [9]: > 160 µM (inconclusive)
EC50 [10]: > 180 µM (inactive)
AC50 [27]: 25.9 µM (active)
EC50 [11]: 0.041 µM (active)
AC50 [28]: 0.57 µM (active)
EC50 [12]: > 160 µM (inactive)
AC50 [29]: 1.98 µM (active)

Oc1c(/C=N/Cc2ccccc2)sc2ccccc12
IC50 [30]: > 66 µM (inactive)
IC50 [13]: > 67.5 µM (inactive)
IC50 [31]: > 66 µM (inactive)
IC50 (HEK293 [14]): > 22.5 µM (inactive)
